Data reported in PubChem BioAssay (NCI).
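Dose response: 5 concentrations. Exposure: 48 h. Format: 96-well plates. Endpoint: linear interpolation; highest concentration if not reached. TGI: total growth inhibition.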

Legend:
Assay in all cases: DTP human tumour cell line panel, 48 h
CAKI-1 renal = test system: CAKI-1 renal
DLD-1 colon = test system: DLD-1 colon
DMS 114 small cell lung = test system: DMS 114 small cell lung
DMS 273 small cell lung = test system: DMS 273 small cell lung
HOP-18 NSCLC = test system: HOP-18 NSCLC
K-562 leukemia = test system: K-562 leukemia
KM20L2 colon = test system: KM20L2 colon
LXFL 529 NSCLC = test system: LXFL 529 NSCLC
RXF-631 renal = test system: RXF-631 renal
SNB-78 CNS = test system: SNB-78 CNS
UACC-257 melanoma = test system: UACC-257 melanoma
XF 498 CNS = test system: XF 498 CNS
M19-MEL melanoma = test system: M19-MEL melanoma

Measured: TGI

Cc1cnoc1/N=C1\C=C(Nc2oncc2C)C(=O)c2ccccc21
not listed: M19-MEL melanoma
> 100 µM: all other assays above

CSC(=Nc1ccc([N+](=O)[O-])cc1C#N)NC(=O)c1ccccc1
not listed: DMS 273 small cell lung
> 100 µM: all other assays above
